From patent US12479847B2 (DANA-FARBER CANCER INSTITUTE, INC., priority 2019, dated 2025)

What was measured:
Assay in all cases: KINOMEscan (ScanMAX) kinase profiling
Type in all cases: binding
panel of 468 kinases [1] = biological target: T1, panel of 468 kinases (Homo sapiens, UniProt Q86Y07); details: VRK2; 1 μM; read-out: % control
T1 construct: purchased KINOMEscan (ScanMAX) service

panel of 468 kinases [2] = biological target: T2, panel of 468 kinases (Homo sapiens, UniProt P00533, DEL752-759); details: EGFR(S752-I759del); 1 μM; read-out: % control
T2 construct: purchased KINOMEscan (ScanMAX) service

panel of 468 kinases [3] = biological target: T3, panel of 468 kinases (Homo sapiens, UniProt Q96NX5); details: CAMK1G; 1 μM; read-out: % control
T3 construct: purchased KINOMEscan (ScanMAX) service
T3 sequence (Q96NX5 whole entry): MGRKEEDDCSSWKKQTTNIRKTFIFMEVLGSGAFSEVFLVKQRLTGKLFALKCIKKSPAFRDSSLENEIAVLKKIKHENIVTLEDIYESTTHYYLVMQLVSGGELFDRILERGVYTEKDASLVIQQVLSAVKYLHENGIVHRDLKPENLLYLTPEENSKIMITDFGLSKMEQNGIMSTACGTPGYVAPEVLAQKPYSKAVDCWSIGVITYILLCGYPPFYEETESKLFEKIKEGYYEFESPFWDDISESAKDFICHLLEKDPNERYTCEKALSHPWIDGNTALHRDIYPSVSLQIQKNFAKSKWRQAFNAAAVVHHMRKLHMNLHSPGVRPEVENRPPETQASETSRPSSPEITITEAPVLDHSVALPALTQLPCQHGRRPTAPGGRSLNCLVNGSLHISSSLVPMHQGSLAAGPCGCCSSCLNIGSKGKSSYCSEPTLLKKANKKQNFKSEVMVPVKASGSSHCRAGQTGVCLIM

panel of 468 kinases [4] = biological target: T4, panel of 468 kinases (Homo sapiens, UniProt Q13557); details: CAMK2D; 1 μM; read-out: % control
T4 construct: purchased KINOMEscan (ScanMAX) service

panel of 468 kinases [5] = biological target: T5, panel of 468 kinases (Homo sapiens, UniProt Q9HCP0); details: CSNK1G1; 1 μM; read-out: % control
T5 construct: purchased KINOMEscan (ScanMAX) service

panel of 468 kinases [6] = biological target: T6, panel of 468 kinases (Homo sapiens, UniProt Q9Y2H9); details: MAST1; 1 μM; read-out: % control
T6 construct: purchased KINOMEscan (ScanMAX) service
T6 sequence (Q9Y2H9 whole entry): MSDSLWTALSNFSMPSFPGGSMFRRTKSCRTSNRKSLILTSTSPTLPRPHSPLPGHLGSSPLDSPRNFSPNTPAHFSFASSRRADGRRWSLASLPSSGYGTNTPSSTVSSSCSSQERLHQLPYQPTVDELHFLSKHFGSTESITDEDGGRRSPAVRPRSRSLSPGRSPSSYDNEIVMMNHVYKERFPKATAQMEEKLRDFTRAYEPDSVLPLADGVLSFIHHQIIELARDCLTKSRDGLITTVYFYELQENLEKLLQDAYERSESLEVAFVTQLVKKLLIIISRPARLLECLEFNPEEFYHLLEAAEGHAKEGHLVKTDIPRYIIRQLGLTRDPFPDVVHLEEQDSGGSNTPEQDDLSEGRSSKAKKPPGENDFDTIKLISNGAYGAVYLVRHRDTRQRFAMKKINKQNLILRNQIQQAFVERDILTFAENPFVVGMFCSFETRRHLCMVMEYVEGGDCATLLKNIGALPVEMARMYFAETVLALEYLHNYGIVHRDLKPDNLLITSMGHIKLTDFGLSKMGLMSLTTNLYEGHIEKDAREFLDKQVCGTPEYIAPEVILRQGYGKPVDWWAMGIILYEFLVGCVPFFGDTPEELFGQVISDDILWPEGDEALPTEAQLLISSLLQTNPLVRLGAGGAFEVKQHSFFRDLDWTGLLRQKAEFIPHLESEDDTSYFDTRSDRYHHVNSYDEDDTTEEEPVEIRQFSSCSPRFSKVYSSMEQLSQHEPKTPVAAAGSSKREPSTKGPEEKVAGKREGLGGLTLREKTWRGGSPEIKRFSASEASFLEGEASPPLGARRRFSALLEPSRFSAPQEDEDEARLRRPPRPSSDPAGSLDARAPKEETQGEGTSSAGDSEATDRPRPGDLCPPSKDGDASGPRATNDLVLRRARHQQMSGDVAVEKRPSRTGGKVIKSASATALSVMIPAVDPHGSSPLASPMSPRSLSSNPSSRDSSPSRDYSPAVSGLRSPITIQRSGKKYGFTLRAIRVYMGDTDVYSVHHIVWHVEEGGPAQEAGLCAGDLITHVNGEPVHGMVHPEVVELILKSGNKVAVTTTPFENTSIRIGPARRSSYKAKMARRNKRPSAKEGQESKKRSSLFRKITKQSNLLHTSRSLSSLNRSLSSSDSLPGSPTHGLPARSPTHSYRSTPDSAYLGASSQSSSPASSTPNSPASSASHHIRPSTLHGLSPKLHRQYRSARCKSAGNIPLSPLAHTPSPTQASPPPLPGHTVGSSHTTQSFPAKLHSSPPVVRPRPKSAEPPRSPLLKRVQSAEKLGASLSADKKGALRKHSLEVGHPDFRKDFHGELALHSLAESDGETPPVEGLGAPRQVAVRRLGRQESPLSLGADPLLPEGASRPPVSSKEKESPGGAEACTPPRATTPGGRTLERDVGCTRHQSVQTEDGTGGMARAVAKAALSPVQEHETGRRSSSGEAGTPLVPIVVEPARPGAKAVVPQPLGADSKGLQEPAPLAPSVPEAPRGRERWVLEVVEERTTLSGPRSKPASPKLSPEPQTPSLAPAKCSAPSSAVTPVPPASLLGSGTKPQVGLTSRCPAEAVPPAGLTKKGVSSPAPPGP

panel of 468 kinases [7] = biological target: T7, panel of 468 kinases (Homo sapiens, UniProt P21802); details: FGFR2; 1 μM; read-out: % control
T7 construct: purchased KINOMEscan (ScanMAX) service

panel of 468 kinases [8] = biological target: T8, panel of 468 kinases (Homo sapiens, UniProt Q9UBE8); details: NLK; 1 μM; read-out: % control
T8 construct: purchased KINOMEscan (ScanMAX) service
T8 sequence (Q9UBE8 1-527): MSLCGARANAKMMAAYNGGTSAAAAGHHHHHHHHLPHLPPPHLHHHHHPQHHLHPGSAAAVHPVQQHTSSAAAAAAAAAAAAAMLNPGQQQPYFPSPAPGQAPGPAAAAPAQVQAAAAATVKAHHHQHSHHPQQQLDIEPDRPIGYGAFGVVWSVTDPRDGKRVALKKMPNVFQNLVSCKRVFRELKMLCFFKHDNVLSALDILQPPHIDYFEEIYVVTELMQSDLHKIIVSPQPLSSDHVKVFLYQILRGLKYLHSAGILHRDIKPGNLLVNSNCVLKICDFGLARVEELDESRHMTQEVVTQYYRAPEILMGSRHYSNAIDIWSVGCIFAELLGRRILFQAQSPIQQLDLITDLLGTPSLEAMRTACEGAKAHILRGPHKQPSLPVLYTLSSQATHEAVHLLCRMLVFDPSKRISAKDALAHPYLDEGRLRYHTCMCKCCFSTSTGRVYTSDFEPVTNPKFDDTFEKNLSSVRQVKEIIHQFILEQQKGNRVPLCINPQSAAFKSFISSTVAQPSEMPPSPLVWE

panel of 468 kinases [9] = biological target: T9, panel of 468 kinases (Homo sapiens, UniProt Q00532); details: CDKL1; 1 μM; read-out: % control
T9 construct: purchased KINOMEscan (ScanMAX) service
T9 sequence (Q00532 whole entry): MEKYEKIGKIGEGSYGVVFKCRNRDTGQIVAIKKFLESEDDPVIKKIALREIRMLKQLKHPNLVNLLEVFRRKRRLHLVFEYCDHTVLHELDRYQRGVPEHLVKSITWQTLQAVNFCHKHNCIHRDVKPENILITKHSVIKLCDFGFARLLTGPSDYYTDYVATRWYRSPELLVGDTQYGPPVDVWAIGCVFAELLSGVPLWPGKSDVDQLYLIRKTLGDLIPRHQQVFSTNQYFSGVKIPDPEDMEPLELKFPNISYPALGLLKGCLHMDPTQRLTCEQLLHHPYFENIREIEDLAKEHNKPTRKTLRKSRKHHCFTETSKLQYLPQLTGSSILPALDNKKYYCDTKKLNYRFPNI

panel of 468 kinases [10] = biological target: T10, panel of 468 kinases (Homo sapiens, UniProt Q8NE63); details: HIPK4; 1 μM; read-out: % control
T10 construct: purchased KINOMEscan (ScanMAX) service
T10 sequence (Q8NE63 1-616): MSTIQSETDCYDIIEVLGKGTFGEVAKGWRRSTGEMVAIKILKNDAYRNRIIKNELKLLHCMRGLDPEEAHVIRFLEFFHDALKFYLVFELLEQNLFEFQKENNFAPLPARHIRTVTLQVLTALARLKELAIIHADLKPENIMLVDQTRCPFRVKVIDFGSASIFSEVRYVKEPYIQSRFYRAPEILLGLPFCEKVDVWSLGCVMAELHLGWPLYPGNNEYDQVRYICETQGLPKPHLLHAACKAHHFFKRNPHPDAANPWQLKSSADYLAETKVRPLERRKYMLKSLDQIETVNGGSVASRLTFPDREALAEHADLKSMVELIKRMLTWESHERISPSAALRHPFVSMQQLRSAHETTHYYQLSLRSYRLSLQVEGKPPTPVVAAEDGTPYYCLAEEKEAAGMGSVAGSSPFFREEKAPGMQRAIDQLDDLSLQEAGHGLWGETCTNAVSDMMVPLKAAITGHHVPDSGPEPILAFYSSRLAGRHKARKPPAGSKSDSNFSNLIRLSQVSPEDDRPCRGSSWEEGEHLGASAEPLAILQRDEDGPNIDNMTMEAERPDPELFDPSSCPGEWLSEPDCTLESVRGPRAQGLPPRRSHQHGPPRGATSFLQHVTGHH

panel of 468 kinases [11] = biological target: T11, panel of 468 kinases (Homo sapiens, UniProt Q13882); details: BRK; 1 μM; read-out: % control
T11 construct: purchased KINOMEscan (ScanMAX) service
T11 sequence (Q13882 whole entry): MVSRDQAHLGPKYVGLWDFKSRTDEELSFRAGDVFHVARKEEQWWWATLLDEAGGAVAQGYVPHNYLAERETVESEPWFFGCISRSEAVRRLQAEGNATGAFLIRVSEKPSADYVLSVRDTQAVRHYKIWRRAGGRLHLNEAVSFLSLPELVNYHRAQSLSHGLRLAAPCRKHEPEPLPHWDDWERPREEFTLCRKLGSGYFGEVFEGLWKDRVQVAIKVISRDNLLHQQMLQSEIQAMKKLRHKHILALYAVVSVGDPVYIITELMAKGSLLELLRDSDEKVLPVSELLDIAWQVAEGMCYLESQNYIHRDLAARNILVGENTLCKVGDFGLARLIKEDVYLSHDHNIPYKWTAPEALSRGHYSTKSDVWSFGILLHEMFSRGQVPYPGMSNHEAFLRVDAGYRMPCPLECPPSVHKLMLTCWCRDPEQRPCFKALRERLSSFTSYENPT

panel of 468 kinases [12] = biological target: T12, panel of 468 kinases (Homo sapiens, UniProt Q9Y2K2); details: QSK; 1 μM; read-out: % control
T12 construct: purchased KINOMEscan (ScanMAX) service

panel of 468 kinases [13] = biological target: T13, panel of 468 kinases (Homo sapiens, UniProt Q16584); details: MLK3; 1 μM; read-out: % control
T13 construct: purchased KINOMEscan (ScanMAX) service
T13 sequence (Q16584 whole entry): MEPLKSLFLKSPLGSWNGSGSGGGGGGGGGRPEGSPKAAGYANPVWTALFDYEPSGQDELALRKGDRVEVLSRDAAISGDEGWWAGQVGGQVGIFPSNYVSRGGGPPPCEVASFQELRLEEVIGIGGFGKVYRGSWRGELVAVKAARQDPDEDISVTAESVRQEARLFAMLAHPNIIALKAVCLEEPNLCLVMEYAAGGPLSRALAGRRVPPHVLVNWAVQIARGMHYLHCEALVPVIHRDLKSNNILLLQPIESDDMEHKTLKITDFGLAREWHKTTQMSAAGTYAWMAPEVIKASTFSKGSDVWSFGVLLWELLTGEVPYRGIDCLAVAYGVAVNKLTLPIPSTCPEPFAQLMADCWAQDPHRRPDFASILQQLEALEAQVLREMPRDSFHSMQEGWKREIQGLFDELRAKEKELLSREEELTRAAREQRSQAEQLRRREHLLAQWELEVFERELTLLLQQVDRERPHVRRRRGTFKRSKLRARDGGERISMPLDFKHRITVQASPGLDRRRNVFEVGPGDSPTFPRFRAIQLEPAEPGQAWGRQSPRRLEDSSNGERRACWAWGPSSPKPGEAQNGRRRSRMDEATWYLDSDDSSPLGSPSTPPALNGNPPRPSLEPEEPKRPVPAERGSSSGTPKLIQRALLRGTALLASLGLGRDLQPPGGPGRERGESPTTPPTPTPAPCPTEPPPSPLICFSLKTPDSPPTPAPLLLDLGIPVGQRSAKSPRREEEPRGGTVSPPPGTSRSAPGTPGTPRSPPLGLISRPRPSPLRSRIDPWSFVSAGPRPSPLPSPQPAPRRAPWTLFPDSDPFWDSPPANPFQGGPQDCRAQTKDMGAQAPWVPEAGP

panel of 468 kinases [14] = biological target: T14, panel of 468 kinases (Homo sapiens, UniProt P35590); details: TIE1; 1 μM; read-out: % control
T14 construct: purchased KINOMEscan (ScanMAX) service

panel of 468 kinases [15] = biological target: T15, panel of 468 kinases (Homo sapiens, UniProt O60674); details: JAK2(JH1domain-catalytic); 1 μM; read-out: % control
T15 construct: purchased KINOMEscan (ScanMAX) service
T15 sequence (O60674 whole entry): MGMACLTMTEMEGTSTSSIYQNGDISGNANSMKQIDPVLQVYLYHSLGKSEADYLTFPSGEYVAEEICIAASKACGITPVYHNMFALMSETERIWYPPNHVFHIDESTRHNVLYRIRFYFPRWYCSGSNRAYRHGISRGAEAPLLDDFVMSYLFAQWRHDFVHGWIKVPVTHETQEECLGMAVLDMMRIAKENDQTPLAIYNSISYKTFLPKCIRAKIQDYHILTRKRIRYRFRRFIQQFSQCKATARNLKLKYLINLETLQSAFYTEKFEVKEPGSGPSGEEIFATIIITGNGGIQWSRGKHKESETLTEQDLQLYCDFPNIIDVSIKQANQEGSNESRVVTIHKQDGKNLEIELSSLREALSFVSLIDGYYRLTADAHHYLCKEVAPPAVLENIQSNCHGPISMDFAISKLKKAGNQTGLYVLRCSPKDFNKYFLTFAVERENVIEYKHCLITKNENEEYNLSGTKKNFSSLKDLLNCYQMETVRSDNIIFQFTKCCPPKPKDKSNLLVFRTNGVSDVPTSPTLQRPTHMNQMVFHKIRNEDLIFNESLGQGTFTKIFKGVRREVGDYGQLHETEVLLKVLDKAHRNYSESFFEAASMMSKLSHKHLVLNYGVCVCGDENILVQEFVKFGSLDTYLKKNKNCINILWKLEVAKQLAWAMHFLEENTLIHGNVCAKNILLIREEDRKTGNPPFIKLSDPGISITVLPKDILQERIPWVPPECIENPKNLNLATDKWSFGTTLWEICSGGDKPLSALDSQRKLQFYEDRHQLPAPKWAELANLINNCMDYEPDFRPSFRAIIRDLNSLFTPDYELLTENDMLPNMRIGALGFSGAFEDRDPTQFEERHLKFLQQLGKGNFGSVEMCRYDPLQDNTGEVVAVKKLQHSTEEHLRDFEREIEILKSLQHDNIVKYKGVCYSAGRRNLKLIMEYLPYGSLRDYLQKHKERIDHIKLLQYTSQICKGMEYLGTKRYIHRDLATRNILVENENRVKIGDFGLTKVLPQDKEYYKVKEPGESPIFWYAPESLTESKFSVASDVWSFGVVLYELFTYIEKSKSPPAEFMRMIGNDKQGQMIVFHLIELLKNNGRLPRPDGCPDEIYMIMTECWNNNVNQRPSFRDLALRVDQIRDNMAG

panel of 468 kinases [16] = biological target: T16, panel of 468 kinases (Homo sapiens, UniProt Q9H4B4); details: PLK3; 1 μM; read-out: % control
T16 construct: purchased KINOMEscan (ScanMAX) service

Structure (SMILES) | remaining binding at 1 µM (panel of 468 kinases [1]) [%] | remaining binding at 1 µM (panel of 468 kinases [2]) [%] | remaining binding at 1 µM (panel of 468 kinases [3]) [%] | remaining binding at 1 µM (panel of 468 kinases [4]) [%] | remaining binding at 1 µM (panel of 468 kinases [5]) [%] | remaining binding at 1 µM (panel of 468 kinases [6]) [%] | remaining binding at 1 µM (panel of 468 kinases [7]) [%] | remaining binding at 1 µM (panel of 468 kinases [8]) [%] | remaining binding at 1 µM (panel of 468 kinases [9]) [%] | remaining binding at 1 µM (panel of 468 kinases [10]) [%] | remaining binding at 1 µM (panel of 468 kinases [11]) [%] | remaining binding at 1 µM (panel of 468 kinases [12]) [%] | remaining binding at 1 µM (panel of 468 kinases [13]) [%] | remaining binding at 1 µM (panel of 468 kinases [14]) [%] | remaining binding at 1 µM (panel of 468 kinases [15]) [%] | remaining binding at 1 µM (panel of 468 kinases [16]) [%]
CNc1nc(Nc2ccc(S(=O)(=O)N3CCC(N4CCOCC4)CC3)cc2OC)nc2[nH]cc(Cl)c12 [Compound 12, 5-chloro-N2-(2-methoxy-4-((4-morpholinopiperidin-1-yl)sulfonyl)phenyl)-N4-methyl-7H-pyrrolo[2,3-d]pyrimidine-2,4-diamine] | 94 | 100 | 96 | 96 | 100 | 100 | 100 | 100 | 85 | 100 | 100 | 100 | 93 | 100 | 78 | 100
CNc1nc(Nc2ccc(P3(=O)CCN(C4CCOCC4)CC3)cc2OC)nc2[nH]cc(Cl)c12 [Compound 77, 4-(4-((5-chloro-4-(methylamino)-7H-pyrrolo[2,3-d]pyrimidin-2-yl)amino)-3-methoxyphenyl)-1-(tetrahydro-2H-pyran-4-yl)-1,4-azaphosphinane 4-oxide] | 89 | 100 | 65 | 89 | 100 | 97 | 100 | 100 | 87 | 99 | 94 | 100 | 80 | 100 | 58 | 96
CNc1nc(Nc2ccc(C(=O)N3CCC(N4CCOCC4)CC3)c3c2OCO3)nc2[nH]cc(Cl)c12 [Compound 75, (7-((5-chloro-4-(methylamino)-7H-pyrrolo[2,3-d]pyrimidin-2-yl)amino)benzo[d][1,3]dioxol-4-yl)(4-morpholinopiperidin-1-yl)methanone] | 88 | 94 | 73 | 89 | 28 | 93 | 97 | 100 | 95 | 97 | 99 | 100 | 51 | 100 | 24 | 100
